Assay results taken from patent US20230173018A1, “CASPOFUNGIN DERIVATIVES AND ASSAYS FOR EVALUATING ANTIFUNGAL TREATMENT EFFICACY” (priority 2020, published 2023).
≈ marks a conversion by molar mass, not a printed value. Where two headings read alike, the source gives them in different places.

Experiments:
Assay type in all cases: cell-based
[1] = system: C. albicans CAF2-1; experiment: microbe, parasite or virus in culture; details: strain no. 10, CAF2-1, parental SC5314
From the text: (§1) The antifungal activities of compounds 1a, 1 and 2 (collectively: caspofungin derivatives) were compared to that of caspofungin and CSF-BOD using a panel of 49 C. albicans and C. glabrata strains (Tables 1 and 2). The panel included ATCC strains and clinical isolates as well a collection of caspofungin-responsive strains and their corresponding isogenic caspofungin-resistant derivatives, constructed by introducing point mutations within and near the defined hotspots in the FKS1 and/or FKS2 genes of the GS complex. Minimal inhibitory concentration (MIC) values for all strains were determined using the broth double dilution method and are summarized in FIG. 2 and Table 2. […] The clinical breakpoints (threshold) for caspofungin-resistance in C. albicans and C. glabrata are 1 μg/mL and 0.5 μg/mL, respectively.

[2] = system: C. glabrata ATCC 15126; experiment: MIC, broth double dilution; details: strain no. 41, C. glabrata ATCC 15126
From the text: as §1

[3] = system: C. glabrata ATCC 2001; experiment: MIC, broth double dilution; details: strain no. 39, C. glabrata ATCC 2001
From the text: as §1

[4] = system: C. glabrata T-192 (1775); experiment: MIC, broth double dilution; details: strain no. 44, T-192 (1775), clinical isolate
From the text: as §1

[5] = system: C. albicans SN152; experiment: MIC, broth double dilution
From the text: as §1

[6] = system: C. glabrata ATCC 90030; experiment: MIC, broth double dilution; details: strain no. 16, C. glabrata ATCC 90030, WT
From the text: as §1

[7] = system: C. glabrata ATCC 66032; experiment: MIC, broth double dilution; details: strain no. 40, C. glabrata ATCC 66032
From the text: as §1

[8] = system: C. albicans ATCC 24433; experiment: MIC, broth double dilution; details: strain no. 6, C. albicans ATCC 24433
From the text: as §1

[9] = system: C. glabrata CST109; experiment: MIC, broth double dilution; details: strain no. 18, C. glabrata CST109 (parental)
From the text: as §1

[10] = system: C. albicans BWP17; experiment: MIC, broth double dilution
From the text: as §1

[11] = system: C. glabrata BG2; experiment: MIC, broth double dilution; details: strain no. 34, C. glabrata BG2
From the text: as §1

[12] = system: C. glabrata T-984 (11-078); experiment: MIC, broth double dilution; details: strain no. 48, T-984 (11-078), clinical isolate
From the text: as §1

[13] = system: C. glabrata EF1620; experiment: MIC, broth double dilution; details: strain no. 31, C. glabrata EF1620
From the text: as §1

[14] = system: C. glabrata T-193 (11-282); experiment: MIC, broth double dilution; details: strain no. 45, T-193 (11-282), clinical isolate
From the text: as §1

[15] = system: panel of 49 C. albicans and C. glabrata strains; experiment: Antifungal activity (MIC) compared to caspofungin over the panel
From the text: as §1, with “Minimal inhibitory concentration (MIC) values for all strains were determined using the broth double dilution method and are summarized in FIG. 2 and Table 2.” left out, “respectively. […]” for “respectively.”

[16] = strain no. 5, C. albicans SN152
[17] = strain no. 9, BWP17, parental RM1000

Question: For CN(C)c1ccc2c(-c3ccc(C(=O)NCCCN=[N+]=[N-])cc3C(=O)[O-])c3ccc(=[N+](C)C)cc-3oc2c1 [Compound 5-TMR-azide], which MIC [1] is on record?
Answer: >64 µg/mL

Question: What about the MIC [2] of the same compound?
Answer: >64 µg/mL

Question: What about the MIC [3] of the same compound?
Answer: >64 µg/mL

Question: And the MIC [4]?
Answer: >64 µg/mL

Question: What about the MIC [5] of the same compound?
Answer: >64 µg/mL

Question: And the MIC [6]?
Answer: >64 µg/mL

Question: What about the MIC [7] of the same compound?
Answer: >64 µg/mL

Question: And the MIC [8]?
Answer: >64 µg/mL

Question: And the MIC [9]?
Answer: >64 µg/mL

Question: What about the MIC [10] of the same compound?
Answer: >64 µg/mL

Question: And the MIC [11]?
Answer: >64 µg/mL

Question: And the MIC [12]?
Answer: >64 µg/mL

Question: And the MIC [13]?
Answer: >64 µg/mL

Question: What about the MIC [14] of the same compound?
Answer: >64 µg/mL

Question: For C#CCOc1ccc([C@H](O)[C@@H](O)[C@@H]2NC(=O)[C@@H]3C[C@@H](O)CN3C(=O)[C@H]([C@@H](C)O)NC(=O)[C@@H](NC(=O)CCCCCCCC[C@@H](C)C[C@@H](C)CC)C[C@@H](O)[C@@H](NCCN)NC(=O)[C@@H]3[C@@H](O)CCN3C(=O)[C@H]([C@H](O)CCN)NC2=O)cc1 [Compound 1a], which “antifungal activity based on MIC values” ([15]; panel of 49 strains) is on record?
Answer: retained antifungal activities

Question: What about the “MIC values higher than the parent caspofungin” value ([15]; ratio to caspofungin MIC, FIG. 2, Table 2) of the same compound?
Answer: 1-8

Question: What about the MIC [2] of the same compound?
Answer: 1 µg/mL (≈ 0.884 µM)

Question: And the MIC [3]?
Answer: 0.5 µg/mL (≈ 0.442 µM)

Question: What about the MIC [4] of the same compound?
Answer: 0.5 µg/mL (≈ 0.442 µM)

Question: And the MIC [5, 16]?
Answer: 0.063 µg/mL (≈ 0.0557 µM)

Question: And the MIC [6]?
Answer: 1 µg/mL (≈ 0.884 µM)

Question: And the MIC [7]?
Answer: 1 µg/mL (≈ 0.884 µM)

Question: And the MIC [8]?
Answer: 0.125 µg/mL (≈ 0.11 µM)

Question: What about the MIC [9] of the same compound?
Answer: 1 µg/mL (≈ 0.884 µM)

Question: And the MIC [10, 17]?
Answer: 0.063 µg/mL (≈ 0.0557 µM)

Question: And the MIC [11]?
Answer: 0.5 µg/mL (≈ 0.442 µM)

Question: What about the MIC [12] of the same compound?
Answer: 0.5 µg/mL (≈ 0.442 µM)

Question: And the MIC [13]?
Answer: 0.5 µg/mL (≈ 0.442 µM)

Question: And the MIC [14]?
Answer: 1 µg/mL (≈ 0.884 µM)

Question: CC[C@H](C)C[C@H](C)CCCCCCCCC(=O)N[C@H]1C[C@@H](O)[C@@H](NCCNC(=O)CCc2ccc3n2[B-](F)(F)[N+]2=C(C)C=C(C)C2=C3)NC(=O)[C@@H]2[C@@H](O)CCN2C(=O)[C@H]([C@H](O)CCN)NC(=O)[C@H]([C@H](O)[C@@H](O)c2ccc(O)cc2)NC(=O)[C@@H]2C[C@@H](O)CN2C(=O)[C@H]([C@@H](C)O)NC1=O [CSF-BOD] was tested. Which MIC [1] did it give?
Answer: 2 µg/mL (≈ 1.46 µM)

Question: What about the “MIC values higher than those of caspofungin” value ([15]; against the responsive strains from the tested panel) of the same compound?
Answer: 8-32 fold

Question: And the antifungal activity spectrum ([15]; resistant vs responsive strains of the panel)?
Answer: identical to that of caspofungin

Question: And the MIC [2]?
Answer: 2 µg/mL (≈ 1.46 µM)

Question: And the MIC [3]?
Answer: 1 µg/mL (≈ 0.731 µM)

Question: What about the MIC [4] of the same compound?
Answer: 2 µg/mL (≈ 1.46 µM)

Question: And the MIC [5, 16]?
Answer: 1 µg/mL (≈ 0.731 µM)

Question: And the MIC [6]?
Answer: 2 µg/mL (≈ 1.46 µM)

Question: And the MIC [7]?
Answer: 2 µg/mL (≈ 1.46 µM)

Question: And the MIC [8]?
Answer: 2 µg/mL (≈ 1.46 µM)

Question: What about the MIC [9] of the same compound?
Answer: 2 µg/mL (≈ 1.46 µM)

Question: What about the MIC [10, 17] of the same compound?
Answer: 1 µg/mL (≈ 0.731 µM)

Question: What about the MIC [11] of the same compound?
Answer: 2 µg/mL (≈ 1.46 µM)

Question: And the MIC [12]?
Answer: 2 µg/mL (≈ 1.46 µM)

Question: What about the MIC [13] of the same compound?
Answer: 1 µg/mL (≈ 0.731 µM)

Question: And the MIC [14]?
Answer: 1 µg/mL (≈ 0.731 µM)
